Like-named read-outs stand apart in the source and are kept apart here.
Tests used:
[1] = target: T1, WT FLT3 (Homo sapiens, UniProt P36888); test: WT FLT3 Lance Ultra TR-FRET kinase assay; assay type: biochemical
T1 construct: purchased Invitrogen PR4666C
T1 sequence (P36888 564-993 limits assumed): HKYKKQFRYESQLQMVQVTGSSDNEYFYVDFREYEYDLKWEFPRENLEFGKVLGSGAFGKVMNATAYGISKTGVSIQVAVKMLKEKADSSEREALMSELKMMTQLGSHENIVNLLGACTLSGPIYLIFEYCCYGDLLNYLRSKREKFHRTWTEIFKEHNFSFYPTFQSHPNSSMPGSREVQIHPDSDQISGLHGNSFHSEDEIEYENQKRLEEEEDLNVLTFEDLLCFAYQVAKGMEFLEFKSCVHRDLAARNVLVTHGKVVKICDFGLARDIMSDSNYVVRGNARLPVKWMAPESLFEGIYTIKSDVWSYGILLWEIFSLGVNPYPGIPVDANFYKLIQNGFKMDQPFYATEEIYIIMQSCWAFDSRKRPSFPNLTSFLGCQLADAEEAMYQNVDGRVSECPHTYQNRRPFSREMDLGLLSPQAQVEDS
Procedure, shortened: (§1)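 Lance Ultra TR-FRET with 50 nM ULight-JAK-1 (Tyr1023) peptide, Eu-anti-phosphotyrosine (PT66) detection, in HEPES pH 7.5 buffer at 23° C, 30 min enzyme/compound preincubation. WT: 0.5 nM enzyme, 100 μM ATP, 30 min; ITD: 0.0625 nM, 50 μM ATP, 60 min. IC50 by four-parameter fit of 11-point 3× dilutions.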

[2] = target: T2, FLT3-ITD (Homo sapiens, UniProt P36888, DUP595-601); test: FLT3-ITD Lance Ultra TR-FRET kinase assay; assay type: biochemical
T2 construct: purchased Signalchem F-12-12CG-10
T2 sequence (P36888 with tags, fused parts or gaps DUP595-601 limits assumed): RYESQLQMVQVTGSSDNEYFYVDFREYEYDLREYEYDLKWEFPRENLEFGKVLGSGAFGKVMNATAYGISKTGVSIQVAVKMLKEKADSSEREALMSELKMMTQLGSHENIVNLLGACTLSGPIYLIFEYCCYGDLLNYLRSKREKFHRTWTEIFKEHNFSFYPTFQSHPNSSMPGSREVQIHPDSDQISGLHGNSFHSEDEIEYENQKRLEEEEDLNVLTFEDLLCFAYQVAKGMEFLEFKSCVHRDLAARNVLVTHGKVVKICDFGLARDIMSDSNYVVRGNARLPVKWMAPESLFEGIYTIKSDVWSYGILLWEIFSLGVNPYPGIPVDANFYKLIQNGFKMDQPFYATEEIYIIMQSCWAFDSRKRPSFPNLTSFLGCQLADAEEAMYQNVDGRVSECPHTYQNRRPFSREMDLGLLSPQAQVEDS
Procedure, shortened: as §1

[3] = test system: K-562; test: Proliferation inhibition, CellTiter-Glo, K-562; assay type: cell-based, human; details: for IC50: Homo sapiens
Procedure, shortened: (§2)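 About 10,000 cells per well in RPMI-1640 with 10% FBS. Compounds added 2 h after seeding at eight concentrations in duplicate (0.2% DMSO as 100% proliferation), then incubated ~96 h at 37° C, 5% CO2. ATP measured by CellTiter-Glo luminescence; IC50 from four-parameter logistic fit.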

[4] = test system: MV-4-11; test: Proliferation inhibition, CellTiter-Glo, MV-4-11; assay type: cell-based, human; details: for IC50: Homo sapiens
Procedure, shortened: as §2

[5] = test system: MOLM-13; test: Proliferation inhibition, CellTiter-Glo, MOLM-13; assay type: cell-based, human; details: for IC50: Homo sapiens, MOLM-13 cells
Procedure, shortened: as §2

[6] = K562, 96 h, K-562 cells, IC50 (4 days), CellTiter-Glo, read-out: K-562 IC50
[7] = MV4-11, 96 h, MV-4:11 cells, IC50 (4 days), CellTiter-Glo, read-out: MV-4:11 IC50
[8] = 96 h, IC50 (4 days), CellTiter-Glo, read-out: MOLM-13 IC50

In the case of `CCc1nc(C(N)=O)c(Nc2ccnc(CCNC(=O)CN(C)C(=O)/C=C/CN3CCC3)c2)nc1C1CC1` [Compound 520, (E)-3-((2-(2-(2-(4-(azetidin-1-yl)-N-methylbut-2-enamido)acetamido)ethyl)pyridin-4-yl)amino)-5-cyclopropyl-6-ethylpyrazine-2-carboxamide], the IC50 [1] is reported as > 1 nM, the IC50 [2] is reported as 0.501 to 1 nM and the IC50 [3, 6] is reported as > 500 nM. The IC50 [4, 7] was 1 to 10 nM and the IC50 [5, 8] was 1 to 10 nM.
In the case of `C=CC(=O)Nc1cccc(Nc2nc(N3CCC[C@H](NC(=O)c4ccc(C5CC5)cc4)[C@@H]3C)cnc2C(N)=O)c1` [Compound C-1, reference compound], the IC50 [1] is reported as > 1 nM, the IC50 [2] is reported as > 1 nM and the IC50 [3, 6] is reported as > 500 nM. For the same compound, the IC50 ([3]; K562 cells, read-out: IC50 in K562 cells) was > 100 nM, the “Ymax in K562 cells” value ([3]; K562 cells) was 0% and the IC50 [4, 7] was > 500 nM. The IC50 ([4]; MV4-11 cells, read-out: IC50 in MV4-11 cells) was > 100 nM, the “Ymax in MV4-11 cells” value ([4]; MV4-11 cells) was 9.7% and the “Ymax in MOLM-13 cells” value [5] was 0%. The IC50 [5, 8] was > 500 nM and the IC50 ([5]; read-out: IC50 in MOLM-13 cells) was > 100 nM.
`CCc1nc(C(N)=O)c(Nc2cccc(CCNC(=O)[C@H](C)NC(=O)/C=C/CN(C)C)c2)nc1NC(C)C` [Compound 501, (S, E)-3-((3-(2-(2-(4-(dimethylamino)but-2-enamido)propanamido)ethyl)phenyl)amino)-6-ethyl-5-(isopropylamino) pyrazine-2-carboxamide] was tested, and the IC50 [1] was 0.501 to 1 nM, the IC50 [2] was 0.501 to 1 nM and the IC50 [3, 6] was > 500 nM. For the same compound, the IC50 [4, 7] was < 1 nM and the IC50 [5, 8] was < 1 nM.

Reference: patent US20240262795A1, “PYRAZINE COMPOUNDS AS INHIBITORS OF FLT3” (Biomea Fusion, Inc., priority 2021, published 2024)
